The values below come from patent US20130252935A1, “Monobactams” (PFIZER INC., priority 2010, published 2013).

Molecules are shown by their SMILES. In brackets after ≈: the same amount, converted by molar mass.

Holding throughout (format): cell-based
Experiment [1] concerns Pseudomonas aeruginosa UC-12120. The experiment is described as follows: minimum inhibitory concentration (MIC) testing according to CLSI guidelines, Pseudomonas aeruginosa. The following applies: Pseudomonas aeruginosa, UC12120; UC-12120, wild-type, labeled as 1091-05; overnight incubation; lower of duplicate values; read-out: AB-MBT: Pseudomonas aeruginosa 1091-05: MIC (MstRcn). The procedure: (§1) In order to assess the compounds biological activity, the in vitro anti-bacterial activity of selected compounds described in the Examples 1-69 was evaluated by minimum inhibitory concentration (MIC) testing according to Clinical and Laboratory Standards Institute (CLSI, formerly NCCLS) guidelines. See: Clinical and Laboratory Standards Institute. Methods for Dilution Antimicrobial Susceptibility Tests for Bacteria that Grow Aerobically; Approved Standard-Eighth Edition. CLSI document M7-A8 [ISBN 1-56238-689-1]. Clinical and Laboratory Standards Institute, 940 West Valley Road, Suite 1400, Wayne, Pa. 19087-1898 USA, 2006; also Clinical and Laboratory Standards Institute. Performance Standards for Antimicrobial Susceptibility Testing; Twentieth Informational Supplement. CLSI document M100-S20 [ISBN1-56238-716-2]. Clinical and Laboratory Standards Institute.
(§2) The MIC determination is a standard laboratory method for evaluating the antibacterial activity of a compound. The MIC represents the lowest drug concentration that inhibits visible growth of bacteria following overnight incubation. […] Typically, the drug concentration range is broken down into 2-fold increments (e.g. 0.06 μg/mL, 0.12 μg/mL. 0.25 μg/mL, 0.50 μg/mL, 1.0 μg/mL, etc.) and the various drug concentrations are all individually incubated overnight with approximately the same number of bacteria. The MIC is then determined by visually inspecting the drug effect at each concentration, and identifying the lowest drug concentration that has inhibited bacterial growth as compared to the drug free control. Typically, bacteria continue to grow at drug concentrations lower than the MIC and don't grow at concentrations at and above the MIC.
(§3) The MIC values described in Table 1 below were derived from assays wherein each test compound was evaluated in duplicate. In cases where the duplicate values varied by 0-2-fold, the lower of the two values was reported below. Generally speaking, if the duplicate values varied by more than 2-fold, the assay was considered non-valid and was repeated until the variation between duplicate runs was ≦2-fold. In line with the CLSI guidelines referred to above, both control organisms and reference compounds were utilized in each MIC assay to provide proper quality control. MIC values generated with these control organisms and reference compounds were required to fall within a defined range for the assay to be considered valid and be included herein. Those skilled in the art will recognize that MIC values can and do vary from experiment to experiment. Generally speaking, it should be recognized that MIC values often vary +/−2-fold from experiment to experiment. While a single MIC is reported for each compound and each microorganism, the reader should not conclude that each compound was only tested once. Several of the compounds were subjected to multiple tests. The data reported in Table 1 is reflective of the compounds relative activity and different MICs may have been generated on these occasions in light with the guidelines described above.
(§4) The following bacterial strains were used in these MIC determinations:
1) Pseudomonas aeruginosa UC-12120: Wild-type, labeled as 1091-05;

For experiment [2], the system named is Acinetobacter baumannii/haemolyticus AB-3167. The experiment is described as follows: minimum inhibitory concentration (MIC) testing according to CLSI guidelines, Acinetobacter. Conditions: Acinetobacter baumannii; multidrug-resistant clinical isolate AB-3167; overnight incubation; lower of duplicate values; read-out: AB-MBT: Acinetobacter baumanii AB-3167: MIC (MstRcnt). The procedure:
as §1, §2, §3, §4
3) Acinetobacter baumannii/haemolyticus: Multidrug-resistant clinical isolate, labeled as AB-3167.

The subject of experiment [3] is Klebsiella pneumoniae 1000-02. The experiment in a line: minimum inhibitory concentration (MIC) testing according to CLSI guidelines, Klebsiella pneumoniae. The following applies: Klebsiella pneumoniae; ciprofloxacin-resistant, ESBL-expressing clinical isolate 1000-02; overnight incubation; lower of duplicate values; read-out: AB-MBT: Klebsiella pneumoniae 1000-02: MIC (MstRcnt). How it is done:
as §1, §2, §3, §4
2) Klebsiella pneumoniae: Ciprofloxacin-resistant isolate, expresses extended-spectrum beta-lactamases (ESBL), clinical isolate, labeled as 1000-02;

For `Nc1nc(/C(=N/OC2(C(=O)O)CCC2)C(=O)N[C@@H]2C(=O)N(S(=O)(=O)O)[C@@H]2CNC(=O)c2cc(=O)c(O)cn2O)cs1` [Example 58, 1-({[(1Z)-1-(2-amino-1,3-thiazol-4-yl)-2-{[(2R,3S)-2-({[(1,5-dihydroxy-4-oxo-1,4-dihydropyridin-2-yl)carbonyl]amino}methyl)-4-oxo-1-sulfoazetidin-3-yl]amino}-2-oxoethylidene]amino}oxy)cyclobutanecarboxylic acid], the MIC in experiment [1] turned out to be 0.25 mg/L (≈ 0.406 µM); in experiment [2] it was 0.25 mg/L (≈ 0.406 µM); in experiment [3], 0.06 mg/L (≈ 0.0975 µM).

Consider `Nc1nc(/C(=N/OC2(C(=O)O)CCOCC2)C(=O)N[C@@H]2C(=O)N(S(=O)(=O)O)[C@@H]2CNC(=O)NCc2cc(=O)c(O)cn2O)cs1` [Example 27, 4-({[(1Z)-1-(2-amino-1,3-thiazol-4-yl)-2-({(2R,3S)-2-[({[(1,5-dihydroxy-4-oxo-1,4-dihydropyridin-2-yl)methyl]carbamoyl}amino)methyl]-4-oxo-1-sulfoazetidin-3-yl}amino)-2-oxoethylidene]amino}oxy)tetrahydro-2H-pyran-4-carboxylic acid], for which the MIC in experiment [1] was 1 mg/L (≈ 1.48 µM); in experiment [2], 2 mg/L (≈ 2.96 µM); in experiment [3], 1 mg/L (≈ 1.48 µM).

Turning to `CC(C)(O/N=C(\C(=O)N[C@@H]1C(=O)N(S(=O)(=O)O)[C@@H]1CNC(=O)CNC(=O)NCc1cc(=O)c(O)cn1O)c1csc(N)n1)C(=O)O` [Example 53, 2-({[(1Z)-1-(2-amino-1,3-thiazol-4-yl)-2-{[(2R,3S)-2-{[(N-{[(1,5-dihydroxy-4-oxo-1,4-dihydropyridin-2-yl)methyl]carbamoyl}glycyl)amino]methyl}-4-oxo-1-sulfoazetidin-3-yl]amino}-2-oxoethylidene]amino}oxy)-2-methylpropanoic acid], the MIC was determined as 0.25 mg/L (≈ 0.363 µM) in experiment [1], 0.25 mg/L (≈ 0.363 µM) in experiment [2] and 1 mg/L (≈ 1.45 µM) in experiment [3].

As to `N#C/N=C(\NCc1cc(=O)c(O)cn1O)NC[C@@H]1[C@H](NC(=O)/C(=N\OC2(C(=O)O)CCC2)c2csc(N)n2)C(=O)N1S(=O)(=O)O` [Example 63, 1-({[(1Z)-1-(2-amino-1,3-thiazol-4-yl)-2-{[(2R,3S)-2-({[(Z)-(cyanoimino){[(1,5-dihydroxy-4-oxo-1,4-dihydropyridin-2-yl)methyl]amino}methyl]amino}methyl)-4-oxo-1-sulfoazetidin-3-yl]amino}-2-oxoethylidene]amino}oxy)cyclobutanecarboxylic acid], the results for the minimum inhibitory concentration (MIC) in experiment [1], in experiment [2] and in experiment [3] were 0.25 mg/L (≈ 0.374 µM), 0.5 mg/L (≈ 0.748 µM) and 1 mg/L (≈ 1.5 µM), respectively.

As for `CC(C)C[C@H](O/N=C(\C(=O)N[C@@H]1C(=O)N(S(=O)(=O)O)[C@@H]1CNC(=O)NCc1cc(=O)c(O)cn1O)c1csc(N)n1)C(=O)O` [Example 31, (2S)-2-({[(1Z)-1-(2-amino-1,3-thiazol-4-yl)-2-({(2R,3S)-2-[({[(1,5-dihydroxy-4-oxo-1,4-dihydropyridin-2-yl)methyl]carbamoyl}amino)methyl]-4-oxo-1-sulfoazetidin-3-yl}amino)-2-oxoethylidene]amino}oxy)-4-methylpentanoic acid], the MIC came to 1 mg/L (≈ 1.51 µM) in experiment [1], 0.5 mg/L (≈ 0.757 µM) in experiment [2] and 0.5 mg/L (≈ 0.757 µM) in experiment [3].

With `CC(C)(O/N=C(\C(=O)N[C@@H]1C(=O)N(S(=O)(=O)O)[C@@H]1COC(=O)c1cc(-c2cc(=O)c(O)c[nH]2)no1)c1csc(N)n1)C(=O)O` [Example 12, 2-({[(1Z)-1-(2-amino-1,3-thiazol-4-yl)-2-({(2S,3S)-2-[({[3-(5-hydroxy-4-oxo-1,4-dihydropyridin-2-yl)isoxazol-5-yl]carbonyl}oxy)methyl]-4-oxo-1-sulfoazetidin-3-yl}amino)-2-oxoethylidene]amino}oxy)-2-methylpropanoic acid], the MIC in experiment [1] was determined as 4 mg/L (≈ 6.1 µM); in experiment [2], 16 mg/L (≈ 24.4 µM); in experiment [3], 0.25 mg/L (≈ 0.381 µM).

As for `Cn1cc(O)c(=O)cc1C(=O)NC[C@@H]1[C@H](NC(=O)/C(=N\OC(C)(C)C(=O)O)c2csc(N)n2)C(=O)N1S(=O)(=O)O` [Example 35, 2-({[(1Z)-1-(2-amino-1,3-thiazol-4-yl)-2-{[(2R,3S)-2-({[(5-hydroxy-1-methyl-4-oxo-1,4-dihydropyridin-2-yl)carbonyl]amino}methyl)-4-oxo-1-sulfoazetidin-3-yl]amino}-2-oxoethylidene]amino}oxy)-2-methylpropanoic acid], the MIC in experiment [1] worked out at 4 mg/L (≈ 6.65 µM); in experiment [2] it was 0.5 mg/L (≈ 0.831 µM); in experiment [3], 0.25 mg/L (≈ 0.416 µM).

In the case of `CC(C)(O/N=C(\C(=O)N[C@@H]1C(=O)N(S(=O)(=O)O)[C@@H]1CNC(=O)c1cccc(C(=O)NCc2cc(=O)c(O)cn2O)c1)c1csc(N)n1)C(=O)O` [Example 44, 2-({[(1Z)-1-(2-amino-1,3-thiazol-4-yl)-2-{[(2R,3S)-2-{[(3-{[(1,5-dihydroxy-4-oxo-1,4-dihydropyridin-2-yl)methyl]carbamoyl}benzoyl)amino]methyl}-4-oxo-1-sulfoazetidin-3-yl]amino}-2-oxoethylidene]amino}oxy)-2-methylpropanoic acid], the MIC in experiment [1], in experiment [2] and in experiment [3] was 0.25 mg/L (≈ 0.339 µM) in each case.

For the compound `CC(C)(O/N=C(\C(=O)N[C@@H]1C(=O)N(S(=O)(=O)O)[C@@H]1Cn1cc(COCc2cc(=O)c(O)cn2O)nn1)c1csc(N)n1)C(=O)O` [Example 1, 2-({[(1Z)-1-(2-amino-1,3-thiazol-4-yl)-2-({(2R,3S)-2-[(4-{[(1,5-dihydroxy-4-oxo-1,4-dihydropyridin-2-yl)methoxy]methyl}-1H-1,2,3-triazol-1-yl)methyl]-4-oxo-1-sulfoazetidin-3-yl}amino)-2-oxoethylidene]amino}oxy)-2-methylpropanoic acid], the MIC was determined as 0.25 mg/L (≈ 0.372 µM) in experiment [1], 0.5 mg/L (≈ 0.744 µM) in experiment [2] and 0.25 mg/L (≈ 0.372 µM) in experiment [3].

As to `CC(C)(O/N=C(\C(=O)N[C@@H]1C(=O)N(S(=O)(=O)O)[C@@H]1CNC(=O)c1cccc(NC(=O)c2cc(=O)c(O)cn2O)c1)c1csc(N)n1)C(=O)O` [Example 67, 2-({[(1Z)-1-(2-amino-1,3-thiazol-4-yl)-2-{[(2R,3S)-2-{[(3-{[(1,5-dihydroxy-4-oxo-1,4-dihydropyridin-2-yl)carbonyl]amino}benzoyl)amino]methyl}-4-oxo-1-sulfoazetidin-3-yl]amino}-2-oxoethylidene]amino}oxy)-2-methylpropanoic acid], the results for the MIC in experiment [1], in experiment [2] and in experiment [3] were 4 mg/L (≈ 5.54 µM), 2 mg/L (≈ 2.77 µM) and 4 mg/L (≈ 5.54 µM), respectively.

`CC(C)(O/N=C(\C(=O)N[C@@H]1C(=O)N(S(=O)(=O)O)[C@@H]1CNC(=O)NCc1cc(-c2cc(=O)c(O)cn2O)no1)c1csc(N)n1)C(=O)O` [Example 47, 2-({[(1Z)-1-(2-amino-1,3-thiazol-4-yl)-2-{[(2R,3S)-2-{[({[3-(1,5-dihydroxy-4-oxo-1,4-dihydropyridin-2-yl)isoxazol-5-yl]methyl}carbamoyl)amino]methyl}-4-oxo-1-sulfoazetidin-3-yl]amino}-2-oxoethylidene]amino}oxy)-2-methylpropanoic acid]: the MIC in experiment [1] was 0.125 mg/L (≈ 0.179 µM); in experiment [2], 0.25 mg/L (≈ 0.357 µM); in experiment [3], 0.25 mg/L (≈ 0.357 µM).

Regarding `CC(C)(O/N=C(\C(=O)N[C@@H]1C(=O)N(S(=O)(=O)O)[C@@H]1COC(=O)CNC(=O)c1cc(O)c(O)cn1)c1csc(N)n1)C(=O)O` [Example 6, 2-({[(1Z)-1-(2-amino-1,3-thiazol-4-yl)-2-({(2S,3S)-2-[({N-[(4,5-dihydroxypyridin-2-yl)carbonyl]glycyl}oxy)methyl]-4-oxo-1-sulfoazetidin-3-yl}amino)-2-oxoethylidene]amino}oxy)-2-methylpropanoic acid], the minimum inhibitory concentration (MIC) in experiment [2] is 1 mg/L (≈ 1.55 µM); in experiment [3] it was 8 mg/L (≈ 12.4 µM).

What is called MIC is the lowest concentration found to suppress growth.
